Where two headings read alike, the source gives them in different places.
Assays:
[1] = tested on: adjuvant arthritis in rats; test: Mycobacterium smegmatis induced adjuvant arthritis in rats (contralateral/left hind paw oedema, systemic phase); assay type: in vivo, male Lewis rats; conditions: 10 mg/kg i.p.; for inhibition in vivo at 10 mg/kg: Mycolicibacterium smegmatis, ip, left hind paw oedema; for Oedema volume ± S.E., day 18 / Oedema volume ± S.E., day 21 / Oedema volume ± S.E., day 25: left hind paw, systemic phase
Protocol: Mycobacterium smegmatis induced adjuvant arthritis in rats Adjuvant arthritis is induced in groups of 10-30 male Lewis rats, weighing 150 g, by injecting 75 μg of M. smegmatis in 50 μl of mineral oil into the plantar surface of the right hind foot pad. The test compounds are administered at 10 mg/kg i.p.), 5 days a week for 4 weeks, starting on the same day of the mycobacterium injection. The volume of the controlateral (systematic phase) hind foot pad is measured pletismographically on days 18, 21 and 25.

[2] = approximate acute toxicity (LD50) in the mouse, per os, single administration of increasing doses; conditions: in vivo, po, measured on the seventh day after treatment
Description: In view of their high biological activity and low toxicity the compounds of the invention can be safely used in medicine. For example, the approximate acute toxicity (LD50) in the mouse of the compounds 2-cyano-3-(1,4-dihydro-1-phenyl-[1]-benzopyrano[4,3-c]pyrazol-3-yl)-3-oxo- N-phenyl-propanamide, and 2-cyano-3-(1,4-dihydro-1-phenyl-[1]-benzothiopyrano[4,3-c]pyrazol-3-yl)-3- oxo-N-phenyl-propanamide, determined per os with single administration of increasing doses and measured on the seventh day after the day of treatment, is higher than 800 mg/kg. Analogous toxocity data have been found for the other compounds of the invention.

[3] = 432 h, Table 2, day 18, read-out: % inhibition vs. controls, day 18
[4] = 504 h, Table 2, day 21, read-out: % inhibition vs. controls, day 21
[5] = 600 h, Table 2, day 25, read-out: % inhibition vs. controls, day 25
[6] = 432 h, Table 1, day 18, read-out: % inhibition vs. controls, day 18
[7] = 504 h, Table 1, day 21, read-out: % inhibition vs. controls, day 21
[8] = 600 h, Table 1, day 25, read-out: % inhibition vs. controls, day 25

Structure (SMILES) | inhibition in vivo at 10 mg/kg [1, 3] | inhibition in vivo at 10 mg/kg [1, 4] | inhibition in vivo at 10 mg/kg [1, 5] | Oedema volume ± S.E., day 18 ([1]; Table 2, day 18) | Oedema volume ± S.E., day 21 ([1]; Table 2, day 21) | Oedema volume ± S.E., day 25 ([1]; Table 2, day 25) | inhibition in vivo at 10 mg/kg [1, 6] | inhibition in vivo at 10 mg/kg [1, 7] | inhibition in vivo at 10 mg/kg [1, 8] | Oedema volume ± S.E., day 18 ([1]; Table 1, day 18) | Oedema volume ± S.E., day 21 ([1]; Table 1, day 21) | Oedema volume ± S.E., day 25 ([1]; Table 1, day 25) | LD50 at 168 h [2]
N#CC(C(=O)Nc1ccccc1)C(=O)c1nn(-c2ccccc2)c2c1Cc1ccc(F)cc1-2 (centres unmarked) [FCE 26676, 2-cyano-3-(7-fluoro-1,4-dihydro-1-phenyl-indeno[1,2-c]pyrazol-3-yl)-3-oxo-N-phenyl-propanamide] | 65% | 54% | 50% | 350 ± 127 mm^3 | 512 ± 203 mm^3 | 612 ± 225 mm^3 |  |  |  |  |  |  | 
N#CC(C(=O)Nc1ccc(F)cc1)C(=O)c1nn(-c2ccc(F)cc2)c2c1Cc1ccccc1-2 (centres unmarked) [FCE 26317, 2-cyano-N-(4-fluoro-phenyl)-3-[1-(4-fluoro-phenyl)-1,4-dihydro-indeno[1,2-c]pyrazol-3-yl]-3-oxo-propanamide] | 37% | 38% | 44% | 629 ± 347 mm^3 | 686 ± 393 mm^3 | 683 ± 417 mm^3 |  |  |  |  |  |  | 
N#CC(C(=O)Nc1ccccc1)C(=O)c1nn(-c2ccccc2)c2c1Cc1ccccc1-2 (centres unmarked) [FCE 25276, 2-cyano-3-(1,4-dihydro-1-phenyl-indeno[1,2-c]pyrazol-3-yl)-3-oxo-N-phenyl-propanamide] | 41% | 47% | 58% | 587 ± 233 mm^3 | 587 ± 254 mm^3 | 512 ± 304 mm^3 |  |  |  |  |  |  | 
N#CC(C(=O)NCc1ccccc1)C(=O)c1nn(-c2ccccc2)c2c1CSc1ccccc1-2 (centres unmarked) [FCE 25324, N-benzyl-2-cyano-3-(1,4-dihydro-1-phenyl-[1]-benzothiopyrano [4,3-c]pyrazol-3-yl)-3-oxo-propanamide] |  |  |  |  |  |  | 51% | 57% | 60% | 565 ± 72 mm^3 | 575 ± 97 mm^3 | 545 ± 78 mm^3 | 
N#CC(C(=O)Nc1ccccc1)C(=O)c1nn(-c2ccccc2)c2c1CCc1ccccc1-2 (centres unmarked) [FCE 25161, 2-cyano-3-(4,5-dihydro-1-phenyl-[1]-benz[g]indazol-3-yl)-3-oxo-N-phenyl-propanamide] |  |  |  |  |  |  | 50% | 49% | 49% | 665 ± 91 mm^3 | 675 ± 96 mm^3 | 685 ± 93 mm^3 | 
N#CC(C(=O)Nc1ccccc1)C(=O)c1nn(-c2ccccc2)c2c1CSc1ccccc1-2 (centres unmarked) [FCE 24578, 2-cyano-3-(1,4-dihydro-1-phenyl-[1]-benzothiopyrano[4,3-c]pyrazol-3-yl)-3-oxo-N-phenyl-propanamide] |  |  |  |  |  |  | 75% | 65% | 68% | 310 ± 180 mm^3 | 470 ± 215 mm^3 | 460 ± 241 mm^3 | > 800 mg/kg
N#CC(C(=O)Nc1ccccc1)C(=O)c1nn(-c2ccccc2)c2c1COc1ccccc1-2 (centres unmarked) [FCE 25158, 2-cyano-3-(1,4-dihydro-1-phenyl-[1]-benzopyrano[4,3-c]pyrazol-3-yl)-3-oxo-N-phenyl-propanamide] | 30% | 38% | 41% | 700 ± 198 mm^3 | 683 ± 174 mm^3 | 717 ± 182 mm^3 |  |  |  |  |  |  | > 800 mg/kg
CC(C)(C)OC(=O)c1cccc2c1SCc1c(C(=O)C(C#N)C(=O)Nc3ccccc3)nn(-c3ccccc3)c1-2 (centres unmarked) [FCE 26674, 3-(6-tert-butoxycarbonyl-1,4-dihydro-1-phenyl-[1]-benzothiopyrano[4,3-c]pyrazol-3-yl)-2-cyano-3-oxo-N-phenyl-propanamide] | 24% | 40% | 34% | 757 ± 209 mm^3 | 662 ± 182 mm^3 | 812 ± 226 mm^3 |  |  |  |  |  |  | 
N#CC(C(=O)Nc1ccccc1)C(=O)c1nn(-c2ccccc2)c2c1Cc1c(CN3CCOCC3)cccc1-2 (centres unmarked) [FCE 26626, 2-cyano-3-(1,4-dihydro-5-morpholinomethyl-1-phenyl-indeno[1,2-c]pyrazol-3-yl)-3-oxo-N-phenyl-propanamide] | 57% | 47% | 54% | 425 ± 173 mm^3 | 587 ± 222 mm^3 | 562 ± 234 mm^3 |  |  |  |  |  |  | 

Source: US5196445A, “Heteroaryl-3-oxo-propanenitrile derivatives useful in the treatment of rheumatoid arthritis and other autoimmune diseases” (Farmitalia Carlo Erba Srl, priority 1989, dated 1993)
